As a reminder, the EC50 is the concentration that produces a half-maximal response.

Where two headings read alike, the source gives them in different places.

For test [1], the target named is human CB1 receptor (hCB1) (Homo sapiens, UniProt P21554). The test can be described thus: cell-based. It is filed as cell-based. As to conditions: for +/− HCB1: agonist or inverse agonist at hCB1. Put shortly:
(§1)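 First, cells in IBMX-containing HEPES-buffered HBSS are raised to elevated cAMP with 2-8 μM NKH-477 for 30 min. Data are normalised to the forskolin and forskolin + 1 μM CP55,940 controls.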

The target of the next test is T1, rat CB2 receptor (rCB2) (Rattus norvegicus, UniProt Q9QZN9).
T1 sequence (Q9QZN9 1-360): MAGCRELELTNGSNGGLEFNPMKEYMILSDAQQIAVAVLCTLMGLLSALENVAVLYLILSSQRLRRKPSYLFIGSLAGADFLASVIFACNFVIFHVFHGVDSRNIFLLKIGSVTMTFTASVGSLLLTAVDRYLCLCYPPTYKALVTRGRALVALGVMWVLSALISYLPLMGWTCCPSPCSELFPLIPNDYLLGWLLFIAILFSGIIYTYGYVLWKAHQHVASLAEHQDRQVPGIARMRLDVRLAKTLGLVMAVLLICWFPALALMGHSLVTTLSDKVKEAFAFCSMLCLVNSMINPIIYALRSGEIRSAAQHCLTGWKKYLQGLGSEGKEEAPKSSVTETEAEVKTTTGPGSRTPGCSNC
Put plainly: cell-based. The format is cell-based. As to conditions: for +/− RCB2: agonist or inverse agonist at rCB2. The gist of the method:
as §1

[2] abbreviates: groups >100 nM-10 μM and >10 μM, cAMP, CHO-K1 hCB1, read-out: EC50 HCB1.

human CB1 receptor (hCB1), sequence (P21554 whole entry): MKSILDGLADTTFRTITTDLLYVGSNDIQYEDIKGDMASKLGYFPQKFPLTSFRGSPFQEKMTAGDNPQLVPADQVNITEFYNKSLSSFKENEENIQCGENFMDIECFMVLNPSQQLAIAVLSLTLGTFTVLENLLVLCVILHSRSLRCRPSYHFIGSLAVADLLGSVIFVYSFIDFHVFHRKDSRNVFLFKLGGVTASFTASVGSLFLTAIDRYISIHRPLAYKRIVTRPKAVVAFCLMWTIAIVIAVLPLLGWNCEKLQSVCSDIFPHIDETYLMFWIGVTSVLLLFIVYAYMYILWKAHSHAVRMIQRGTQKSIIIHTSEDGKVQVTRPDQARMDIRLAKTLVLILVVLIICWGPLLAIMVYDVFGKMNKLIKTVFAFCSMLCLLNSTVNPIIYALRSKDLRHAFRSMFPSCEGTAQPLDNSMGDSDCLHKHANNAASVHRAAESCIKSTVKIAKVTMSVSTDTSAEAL

In turn, `CNC(=O)[C@H](CC(C)C)NC(=O)c1nc(-c2cc(F)ccc2F)n2c1CN(C)CCC2` [Compound 532, (S)-3-(2,5-difluorophenyl)-8-methyl-N-(4-methyl-1-(methylamino)-1-oxopentan-2-yl)-6,7,8,9-tetrahydro-5H-imidazo[1,5-a][1,4]diazepine-1-carboxamide] yielded an EC50 in test [1] greater than 10000 nM. The “+/− RCB2” value at rat CB2 receptor (rCB2) is reported as “−”.
As for `CNC(=O)[C@@H](NC(=O)c1nc(-c2ccccc2C#N)n2c1CN(C)CC2)C(C)(C)C` [Compound 259, (S)-3-(2-cyanophenyl)-N-(3,3-dimethyl-1-(methylamino)-1-oxobutan-2-yl)-7-methyl-5,6,7,8-tetrahydroimidazo[1,5-a]pyrazine-1-carboxamide], the EC50 in test [1] is greater than 10000 nM; at rat CB2 receptor (rCB2), greater than 10 µM.
As for `CNC(=O)[C@@H](NC(=O)c1nc(CCCC2CCCC2)n2c1CN(C)CCC2)C(C)(C)C` [Compound 494, (S)-3-(3-cyclopentylpropyl)-N-(3,3-dimethyl-1-(methylamino)-1-oxobutan-2-yl)-8-methyl-6,7,8,9-tetrahydro-5H-imidazo[1,5-a][1,4]diazepine-1-carboxamide], the EC50 in test [1] was greater than 10000 nM. In addition, on rat CB2 receptor (rCB2), the “+/− RCB2” value is recorded as “−”.
In turn, `CNC(=O)[C@@H](NC(=O)c1nc(-c2cccs2)n2c1CN(C)CCC2)C(C)(C)C` [Compound 349, (S)-N-(3,3-dimethyl-1-(methylamino)-1-oxobutan-2-yl)-8-methyl-3-(thiophen-2-yl)-6,7,8,9-tetrahydro-5H-imidazo[1,5-a][1,4]diazepine-1-carboxamide] had an EC50 in test [1] greater than 10000 nM. Also, the “+/− RCB2” value on rat CB2 receptor (rCB2) was “+”.
Turning to `O=C(c1nc(-c2ccccc2)n2c1CN(S(=O)(=O)c1ccc(F)cc1)CC2)N1CCOCC1` [Compound 105, (7-(4-fluorophenylsulfonyl)-3-phenyl-5,6,7,8-tetrahydroimidazo[1,5-a]pyrazine-1-yl)(morpholino)methanone], the EC50 in test [1] (setting [2]) is greater than 10000 nM. Also, the “+/− RCB2” value at rat CB2 receptor (rCB2) is listed as “−”.
Compound `O=C(NN1CCCCC1)c1nc(-c2ccccc2)n2c1CNCC2` [Compound 44, 3-phenyl-N-(piperidin-1-yl)-5,6,7,8-tetrahydroimidazo[1,5-a]pyrazine-1-carboxamide] returned an EC50 in test [1] greater than 10000 nM. Also, the “+/− RCB2” value at rat CB2 receptor (rCB2) is listed as “−”.
On to `Cc1noc([C@@H](NC(=O)c2nc(-c3ccccc3)n3c2CN(C)CCC3)C(C)(C)C)n1` [Compound 521, (S)-N-(2,2-dimethyl-1-(3-methyl-1,2,4-oxadiazol-5-yl)propyl)-8-methyl-3-phenyl-6,7,8,9-tetrahydro-5H-imidazo[1,5-a][1,4]diazepine-1-carboxamide], for which, in test [1], the 50% effective concentration (EC50) was greater than 10000 nM. On rat CB2 receptor (rCB2), the “+/− RCB2” value was “+”.
Turning to `CN1CCCn2c(-c3cc(F)ccc3F)nc(C(=O)N[C@H](C(N)=O)C(C)(C)C)c2C1` [Compound 575, (S)-N-(1-amino-3,3-dimethyl-1-oxobutan-2-yl)-3-(2,5-difluorophenyl)-8-methyl-6,7,8,9-tetrahydro-5H-imidazo[1,5-a][1,4]diazepine-1-carboxamide], the “+/− HCB1” value in test [1] is recorded as “+”. Further, the “+/− RCB2” value on rat CB2 receptor (rCB2) is “+”.
`CNC(=O)[C@@H](NC(=O)c1nc(-c2ccc(Cl)c(F)c2)n2c1CN(C)CCC2)C(C)(C)C` [Compound 373] registered a concentration for a half-maximal effect (EC50) in test [1] greater than 10000 nM. In addition, the “+/− RCB2” value on rat CB2 receptor (rCB2) is “+”.
For `CN1CCn2c(-c3ccccc3)nc(C(=O)CCCc3ccccc3)c2C1` [Compound 294, 1-(7-methyl-3-phenyl-5,6,7,8-tetrahydroimidazo[1,5-a]pyrazin-1-yl)-4-phenylbutan-1-one], the EC50 in test [1] (setting [2]) was greater than 10000 nM. Also, the “+/− RCB2” value at rat CB2 receptor (rCB2) was “−”.
In the case of `CNC(=O)[C@@H](NC(=O)c1nc(-c2ccc(-c3ccccc3)cc2)n2c1CN(C)CC2)C(C)(C)C` [Compound 265, (S)-3-(biphenyl-4-yl)-N-(3,3-dimethyl-1-(methylamino)-1-oxobutan-2-yl)-7-methyl-5,6,7,8-tetrahydroimidazo[1,5-a]pyrazine-1-carboxamide], the EC50 in test [1] is greater than 10000 nM. In addition, at rat CB2 receptor (rCB2), the “+/− RCB2” value is on record as “−”.
The compound `CNC(=O)[C@@H](NC(=O)c1nc(-c2cc(OC)cc(C(F)(F)F)c2)n2c1CN(C)CCC2)C(C)(C)C` [Compound 418, (S)-N-(3,3-dimethyl-1-(methylamino)-1-oxobutan-2-yl)-3-(3-methoxy-5-(trifluoromethyl)phenyl)-8-methyl-6,7,8,9-tetrahydro-5H-imidazo[1,5-a][1,4]diazepine-1-carboxamide] gave a concentration giving a half-maximal response (EC50) in test [1] greater than 10000 nM. Besides, on rat CB2 receptor (rCB2), the “+/− RCB2” value is “−”.
Taken in the same sequence, the figures for `CCCc1nc(C(=O)N[C@H](C(=O)NC)C(C)(C)C)c2n1CCN(C)C2` [Compound 304, (S)-N-(3,3-dimethyl-1-(methylamino)-1-oxobutan-2-yl)-7-methyl-3-propyl-5,6,7,8-tetrahydroimidazo[1,5-a]pyrazine-1-carboxamide] were greater than 10000 nM and “+”.
`CNC(=O)[C@@H](NC(=O)c1nc(/C=C/CN2CCOCC2)n2c1CN(C)CC2)C(C)(C)C` [Compound 286, (S,E)-N-(3,3-dimethyl-1-(methylamino)-1-oxobutan-2-yl)-7-methyl-3-(3-morpholinoprop-1-enyl)-5,6,7,8-tetrahydroimidazo[1,5-a]pyrazine-1-carboxamide] had an EC50 in test [1] greater than 10000 nM. The “+/− RCB2” value at rat CB2 receptor (rCB2) is listed as “+”.
In the case of `CN1CCCn2c(-c3cc(F)c(F)cc3F)nc(C(=O)N[C@@H](CC(C)(C)C)C(N)=O)c2C1` [Compound 590, (S)-N-(1-amino-4,4-dimethyl-1-oxopentan-2-yl)-8-methyl-3-(2,4,5-trifluorophenyl)-6,7,8,9-tetrahydro-5H-imidazo[1,5-a][1,4]diazepine-1-carboxamide], the “+/− HCB1” value in test [1] is “+”. The “+/− RCB2” value on rat CB2 receptor (rCB2) is “+”.
In the case of `CC(C)C[C@H](NC(=O)c1nc(-c2ccc(F)cc2)n2c1CN(C)CCC2)C(N)=O` [Compound 565, (S)-N-(1-amino-4-methyl-1-oxopentan-2-yl)-3-(4-fluorophenyl)-8-methyl-6,7,8,9-tetrahydro-5H-imidazo[1,5-a][1,4]diazepine-1-carboxamide], in test [1], the half-maximal effective concentration (EC50) is greater than 10000 nM. Also, the “+/− RCB2” value at rat CB2 receptor (rCB2) is recorded as “+”.
On to `COC(=O)N1CCn2c(-c3ccccc3)nc(C(=O)NC3CCCCC3)c2C1` [Compound 187, methyl 1-(cyclohexylcarbamoyl)-3-phenyl-5,6-dihydroimidazo[1,5-a]pyrazine-7(8H)-carboxylate], for which, in test [1] (setting [2]), the EC50 is greater than 10000 nM. Further, the “+/− RCB2” value on rat CB2 receptor (rCB2) was “−”.
On to `CNC(=O)[C@H](C)NC(=O)c1nc(-c2ccccc2)n2c1CN(S(=O)(=O)c1ccc(F)cc1)CC2` [Compound 110, (S)-7-(4-fluorophenylsulfonyl)-N-(1-(methylamino)-1-oxopropan-2-yl)-3-phenyl-5,6,7,8-tetrahydroimidazo[1,5-a]pyrazine-1-carboxamide], for which the EC50 in test [1] is greater than 10000 nM. The “+/− RCB2” value on rat CB2 receptor (rCB2) is recorded as “+”.
The corresponding values for `CC(C)CN1CCn2c(-c3ccccc3)nc(C(=O)NCC3CCOCC3)c2C1` [Compound 167, 7-isobutyl-3-phenyl-N-((tetrahydro-2H-pyran-4-yl)methyl)-5,6,7,8-tetrahydroimidazo[1,5-a]pyrazine-1-carboxamide] are greater than 10000 nM and “−”.
In the case of `CNC(=O)[C@@H](NC(=O)c1nc(Cc2ccccc2)n2c1CN(C)CCC2)C(C)(C)C` [Compound 459, (S)-3-benzyl-N-(3,3-dimethyl-1-(methylamino)-1-oxobutan-2-yl)-8-methyl-6,7,8,9-tetrahydro-5H-imidazo[1,5-a][1,4]diazepine-1-carboxamide], the EC50 in test [1] was greater than 10000 nM. Moreover, the “+/− RCB2” value on rat CB2 receptor (rCB2) is reported as “+”.
In test [1], `CNC(=O)[C@@H](NC(=O)c1nc(-c2ccc(C#N)cc2)n2c1CN(C)CC2)C(C)(C)C` [Compound 254, (S)-3-(4-cyanophenyl)-N-(3,3-dimethyl-1-(methylamino)-1-oxobutan-2-yl)-7-methyl-5,6,7,8-tetrahydroimidazo[1,5-a]pyrazine-1-carboxamide] registered an EC50 greater than 10000 nM. Besides, the “+/− RCB2” value at rat CB2 receptor (rCB2) is on record as “−”.
Take `CNC(=O)[C@H](CC(C)C)NC(=O)c1nc(C2CCCCC2)n2c1CN(C)CCC2` [Compound 540, (S)-3-cyclohexyl-8-methyl-N-(4-methyl1-1-(methylamino)-1-oxopentan-2-yl)-6,7,8,9-tetrahydro-5H-imidazo[1,5-a][1,4]diazepine-1-carboxamide]: the EC50 in test [1] (setting [2]) was greater than 10000 nM. Also, the “+/− RCB2” value at rat CB2 receptor (rCB2) is on record as “+”.
`CNC(=O)[C@@H](NC(=O)c1nc(-c2csc3ccccc23)n2c1CN(C)CCC2)C(C)(C)C` [Compound 354, (S)-3-(benzo[b]thiophen-3-yl)-N-(3,3-dimethyl-1-(methylamino)-1-oxobutan-2-yl)-8-methyl-6,7,8,9-tetrahydro-5H-imidazo[1,5-a][1,4]diazepine-1-carboxamide]: the 50% effective concentration (EC50) in test [1] is greater than 10000 nM. The “+/− RCB2” value on rat CB2 receptor (rCB2) is “−”.
The corresponding values for `CN1CCn2c(-c3ccccc3)nc(C(=O)N[C@H](C(=O)O)C(C)(C)C)c2C1` [Compound 281, (S)-3,3-dimethyl-2-(7-methyl-3-phenyl-5,6,7,8-tetrahydroimidazo[1,5-a]pyrazine-1-carboxamido)butanoic acid] are greater than 10000 nM and “+”.
